This test deals with odorant receptor OR5. The test can be described thus: IR spectroscopy of OR5/tBLM system upon addition of odorant. In kind it is binding, rat. How it is done:
The activity of incorporated odorant receptors was measured using IR spectroscopy.

Structures are written as SMILES.

Take `CC(C=O)Cc1ccc(C(C)(C)C)cc1` (centres unmarked) [lilial]: the “signal change of the IR amide I peak (recognition of the odor by the receptor)” value (1 mM lilial added to tBLM integrated OR5) is listed as “recognition of the odor by the receptor”. For the same molecule, where the note is “rinsing with PBS”, the “reversibility of the lilial/OR5 interaction” value is listed as “can be reversed by rinsing with PBS”.

The record behind these values is patent US20090202997A1, “Cell-Free In Vitro Transcription and Translation of Membrane Proteins into Tethered Planar Lipid Layers” (priority 2005, published 2009).
